In ChEMBL document CHEMBL3045018, “Comparative QSTR study of saturated alcohols based on topological, constitutional, geometrical, and getaway descriptors” (Med Chem Res, 2009):

Each compound was assayed on Tetrahymena pyriformis (assay: Toxicity in Tetrahymena pyriformis). Details: in vivo.

| Compound | pGI50 |
| --- | --- |
| CC(O)CCl (stereo not given) | 1.2446 |
| OCCCl [2-CHLOROETHANOL] | 1.5343 |
| CCCC(C)O (stereo not given) [2-PENTANOL] | 1.1596 |
| OCCCCl [3-Chloropropanol] | 1.1622 |
| CC(C)CCO [3-METHYLBUTANOL] | 1.0359 |
| CCC(O)CC [3-PENTANOL] | 1.2437 |
| CCO [ALCOHOL] | 1.9912 |
| CCC(C)(C)O [AMYLENE HYDRATE] | 1.1729 |
| CCC(C)O (stereo not given) [BUTANOL] | 1.542 |
| CCCCO [BUTYL ALCOHOL] | 1.4306 |
| CC(C)CO [ISOBUTANOL] | 1.3724 |
| CC(C)O [ISOPROPYL ALCOHOL] | 1.8819 |
| CO [METHYL ALCOHOL] | 2.6656 |
| CCCO [PROPANOL] | 1.7464 |
| CC(C)(C)O [TERT-BUTANOL] | 1.7911 |
